Measured values from US7704982B2, “2-methylene-19-nor-1α-hydroxy-17-ene-homopregnacalciferol and its uses” (Wisconsin Alumni Research Foundation, priority 2004, dated 2010).

Tests used:
[1] = Intestinal calcium transport, everted gut sac method, in vitamin D-deficient rats; format: in vivo, Sprague-Dawley rats; details: FIG. 6
Procedure: (§1) Male, weanling Sprague-Dawley rats were placed on Diet 11 (0.47% Ca)+AEK for one week followed by Diet 11 (0.02% Ca)+AEK for 3 weeks. The rats were then switched to the same diet containing 0.47% Ca for one week followed by two weeks on the same diet containing 0.02% Ca. Dose administration began during the last week on 0.02% calcium diet. Four consecutive ip doses were given approximately 24 hours apart. Twenty-four hours after the last dose, blood was collected from the severed neck and the concentration of serum calcium determined by atomic absorption spectrometry as a measure of bone calcium mobilization. The first 10 cm of the intestine was also collected for intestinal calcium transport analysis using the everted gut sac method.

[2] = test system: Human promyelocytic leukemia (HL60) cells; assay: HL-60 cell differentiation (nitro blue tetrazolium reduction); format: cell-based; details: 4 days, FIG. 2
Procedure: The study drugs were dissolved in ethanol and the concentrations determined using UV spectrophotometry. Serial dilutions were prepared so that a range of drug concentrations could be tested without changing the final concentration of ethanol (≦0.2%) present in the cell cultures.
Human promyelocytic leukemia (HL60) cells were grown in RPMI-1640 medium containing 10% fetal bovine serum. The cells were incubated at 37° C. in the presence of 5% CO2.
HL60 cells were plated at 1.2×10^5 cells/ml. Eighteen hours after plating, cells in duplicate were treated with drug. Four days later, the cells were harvested and a nitro blue tetrazolium reduction assay was performed (Collins et al., 1979; J. Exp. Med. 149:969-974). The percentage of differentiated cells was determined by counting a total of 200 cells and recording the number that contained intracellular black-blue formazan deposits. Verification of differentiation to monocytic cells was determined by measuring phagocytic activity (data not shown).

[3] = test system: 24-hydroxylase (24Ohase) gene promoter; assay: In vitro transcription assay (luciferase reporter) in ROS 17/2.8 (bone) cells; format: cell-based; details: ROS 17/2.8 cells, 24Ohase promoter-luciferase, 16 h; FIG. 3; read-out: EC50, transcriptional activity in bone cells
Procedure: Transcription activity was measured in ROS 17/2.8 (bone) cells that were stably transfected with a 24-hydroxylase (24Ohase) gene promoter upstream of a luciferase reporter gene (Arbour et al., 1998). Cells were given a range of doses. Sixteen hours after dosing the cells were harvested and luciferase activities were measured using a luminometer.
RLU=relative luciferase units.

[4] = Bone calcium mobilization (serum calcium) in vitamin D-deficient rats; format: in vivo, Sprague-Dawley rats; details: 0.02% Ca diet
Procedure: as §1

[5] = target: T1, full-length recombinant rat vitamin D receptor (Rattus norvegicus, UniProt P13053); assay: Vitamin D receptor competitive binding with [3H]-1,25(OH)2D3; details: full-length recombinant rat VDR; FIG. 1; read-out: Ki, competition with [3H]-1,25(OH)2D3 for binding to the vitamin D receptor
T1 construct: Full-length recombinant rat receptor was expressed in E. coli; histidine tag (C); made in house; host or cells: E. coli BL21 (DE3) Codon Plus RIL
T1 sequence (P13053 1-423): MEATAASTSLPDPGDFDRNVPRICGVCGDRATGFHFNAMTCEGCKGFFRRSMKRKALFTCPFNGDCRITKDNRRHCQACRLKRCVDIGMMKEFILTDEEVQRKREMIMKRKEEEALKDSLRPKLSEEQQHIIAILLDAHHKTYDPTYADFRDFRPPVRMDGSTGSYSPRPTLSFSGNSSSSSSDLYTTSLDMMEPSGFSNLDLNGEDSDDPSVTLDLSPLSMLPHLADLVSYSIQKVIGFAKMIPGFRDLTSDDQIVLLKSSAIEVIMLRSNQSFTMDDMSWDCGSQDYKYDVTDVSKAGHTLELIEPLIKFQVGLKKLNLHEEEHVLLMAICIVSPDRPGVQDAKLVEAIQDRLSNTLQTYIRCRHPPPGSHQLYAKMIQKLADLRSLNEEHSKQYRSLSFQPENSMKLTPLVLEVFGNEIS
Procedure: Full-length recombinant rat receptor was expressed in E. coli BL21 (DE3) Codon Plus RIL cells and purified to homogeneity using two different column chromatography systems. The first system was a nickel affinity resin that utilizes the C-terminal histidine tag on this protein. The protein that was eluted from this resin was further purified using ion exchange chromatography (S-Sepharose Fast Flow). Aliquots of the purified protein were quick frozen in liquid nitrogen and stored at −80° C. until use. For use in binding assays, the protein was diluted in TEDK50 (50 mM Tris, 1.5 mM EDTA, pH7.4, 5 mM DTT, 150 mM KCl) with 0.1% Chaps detergent. The receptor protein and ligand concentration were optimized such that no more than 20% of the added radiolabeled ligand was bound to the receptor.
Radiolabeled and unlabeled ligands were added to 100 mcl of the diluted protein at a final ethanol concentration of ≦10%, mixed and incubated overnight on ice to reach binding equilibrium. The following day, 100 mcl of hydroxylapatite slurry (50%) was added to each tube and mixed at 10-minute intervals for 30 minutes. The hydroxylapaptite was collected by centrifugation and then washed three times with Tris-EDTA buffer (50 mM Tris, 1.5 mM EDTA, pH 7.4) containing 0.5% Titron X-100. […] Total binding was determined from the tubes containing only radiolabeled ligand.

Ki [5] [nM]	EC50 ([2]; Homo sapiens, HL-60, 96 h) [nM]	Compound	intestinal calcium transport ([1]; 780 pmol/day ip for 4 days)	EC50 [2] [nM]	EC50 [3] [nM]	serum calcium levels (bone calcium mobilization) ([4]; all dosages tested (FIG. 4))	intestinal calcium transport ([1]; 2340 pmol/day ip for 4 days)	intestinal calcium transport ([1]; 7020 pmol/day ip for 4 days)	mobilization of bone calcium (serum calcium) ([4]; 780 pmol/day ip for 4 consecutive days)	mobilization of bone calcium (serum calcium) ([4]; 2340 pmol/day ip for 4 consecutive days)	mobilization of bone calcium (serum calcium) ([4]; 7020 pmol/day ip for 4 consecutive days)
		C=C1/C(=C\C=C2/CCC[C@]3(C)[C@@H]([C@H](C)CCCC(C)(C)O)CC[C@@H]23)C[C@@H](O)C[C@@H]1O [1,25(OH)2D3, 1α,25-dihydroxyvitamin D3, reference compound]	promotes a significant increase	6.2	0.22	increased serum calcium levels					
0.19	13	C=C1[C@H](O)CC(=C/C=C2\CCC[C@]3(C)C(=C(C)C)CCC23)C[C@H]1O (stereo partly drawn) [VIT-I, 2-methylene-19-nor-1α-hydroxy-17-ene-homopregnacalciferol]	does not promote intestinal calcium transport		6		does not promote intestinal calcium transport	does not promote intestinal calcium transport	did not result in mobilization of bone calcium	without any substantial effect	without any substantial effect
